{"source": "ChEMBL document CHEMBL1134908", "about": "“Synthesis of cholesterol-carborane conjugate for targeted drug delivery” (Bioorg Med Chem Lett, 2002)", "tested_on": "Cancer cell lines", "test": "The cytotoxicity in liposomal formulation was determined on the SF-763 human glioma cancer cell line", "assay_type": "functional, cell-based", "data": [{"substance": "Cholesteryl 1,12-dicarba-closo-dodecaborane-1-carboxylate (BCH)", "values": [{"measurement": "Viable cells", "value": 98.5, "unit": "%"}]}]}
